This note sets out measurements from US7435744B2, “Piperidine derivatives as NMDA receptor antagonists” (Gedeon Richter Vegyeszeti Gyar RT, priority 2001, dated 2008).

The target in experiment [1] is T1, NMDA receptors (NR2B subunit containing) (Rattus norvegicus, UniProt P35439+Q00960).
T1 construct: endogenous in cells; host or cells: primary neocortical neurons from 17 day old Charles River rat embryos, 4-7 days in vitro
The experiment can be described thus: Functional NMDA antagonist potency: intracellular calcium measurement in primary cultures of rat cortical neurons (fluorimeter plate reader). In kind it is cell-based. Conditions: rat cortical neurons 4-7 days in vitro, 40 μM NMDA, Fluo-4 intracellular Ca2+; read-out: NMDA IC50. The text has this:
Assessing the Functional NMDA Antagonist Potency of Compounds in Primary Cultures of Rat Cortical Neurons Based on Measuring the Intracellular Calcium Concentration Using a Fluorimeter Plate Reader
It is known that during postnatal development the subunit composition of neuronal NMDA receptors is changing. […] According to data in the literature and to our own immunocytochemical examinations neuronal cells cultured for 4-7 days in vitro predominantly express the NR2B subunit, together with NR1 subunit. Therefore, functional test of NMDA antagonism in these cells reflects mainly an action on NR2B subunit containing receptors. Since NMDA receptors are known to be permeable to calcium ions upon excitation, the extent of NMDA receptor activation, and its inhibition by functional antagonists can be characterised by measuring the rise in the intracellular calcium concentration following agonist (NMDA) application onto the cells. Since there is very high sequence homology between rat and human NMDA receptors (99, 95, 97% for NR1, NR2A, and NR2B subunits, respectively), it is believed that there is little, if any, difference in their pharmacological sensitivity.
In: Protocols for Neural Cell Culture, eds: Fedoroff, S.; Richardson A., The Humana Press Inc., 13-38.] After isolation, the cells are plated onto standard 96-well microplates and the cultures are maintained in an atmosphere of 95% air-5% CO2 at 37° C. until testing.
The cultures are used for the intracellular calcium measurements after 4-7 days in vitro. […] Loading is stopped by washing twice with the solution used also during the measurement (140 mM NaCl, 5 mM KCl, 2 mM CaCl2, 5 mM HEPES [4-(2-hydroxyethyl)-1-piperazineethane-sulfonic acid], 5 mM HEPES-Na, 20 mM glucose, 10 μM glycine, pH=7.4). Then the test compound dissolved in the above solution (90 μl/well) is added. Intracellular calcium measurements are carried out with a plate reader fluorimeter. A rise is induced by application of 40 μM NMDA in Fluo-4-fluorescence that reflects the intracellular calcium concentration. Inhibitory potency of the test compound is assessed by measuring the reduction in the calcium elevation in the presence of different concentrations of the compound. After the measurement, a standard calibration procedure [Meth. Cell.
Inhibitory potency of a compound at a single concentration point is expressed as percent inhibition of the control NMDA response. Sigmoidal concentration-inhibition curves are fitted over the data and IC50 values are defined as the concentration that produces half of the maximal inhibition that could be achieved with the compound. Mean IC50 values are derived from at least three independent experiments.
(§1) wherein for NMDA IC50—IC50 is determined by the intracellular Ca^2+-concentartion assay on cortical neurons; and for Ro-binding IC50—IC50 is determined by the [^3H]-Ro 25,6981 binding assay on rat cerebral membranes.
(In general: A change in cytosolic calcium serves as a functional read-out for many receptors and channels.)

The target of the next experiment is T2, NR2B subunit (Rattus norvegicus, UniProt P35439+Q00960).
T2 construct: from tissue; host or cells: forebrain membranes of male Wistar rats
The experiment can be described thus: [3H]-Ro 25,6981 binding assay on rat cerebral membranes. As to conditions: rat forebrain membranes, 4 nM [3H]-Ro 25,6981, 2 hours at room temperature; read-out: Ro-binding IC50. The procedure: Determining Binding of Compounds to NR2B Subunit by [^3H]-Ro 25,6981 Binding Assay
Briefly, membranes are isolated from the forebrain of male Wistar rats. They are incubated in the presence and absence of test compound for 2 hours at room temperature. […] The applied radioligand (^3H-Ro-25,6981) concentration is 4 nM.
as §1

A further experiment concerns NMRI mice. The experiment can be described thus: Mouse formalin test (second phase) for in vivo efficacy. Conditions: po, p.o. 15 min before formalin, licking time 20 to 25 min after formalin, >20 = inhibition less than 50% at 20 mg/kg p.o. The procedure:
Mouse Formalin Test for Measurement of In Vivo Efficacy
Injection of diluted formalin into the hind paw of rats or mouse is known to elicit a biphasic pain related behaviour measured as time spent by licking/biting of the injured paw. The second phase is generally defined as pain related events detected in the 15-60 min. time interval after formalin injection. It is known that NMDA receptors are involved in the second phase of response to formalin injection and this behavioural response is sensitive to blockade of NMDA receptors [Dickenson, A. and Besson J.-M. (Eds.): Chapter 1, pp. 6-7: Animal models of Analgesia; and Chapter 8, pp. 180-183: Mechanism of Central Hypersensitivity: Excitatory Amino Acid Mechanisms and Their Control—In Pharmacology of Pain. Springer-Verlag (Berlin) 1997.] Therefore, we performed the second phase of formalin test to characterise the efficacy of compounds in vivo. Inhibition of the second phase of response is considered to indicate an analgesic effect against chemically-induced persistent pain [Hunskaar, S., et al.: Formalin Test in Mice, a Useful Technique for Evaluating Mild Analgesics, Journal of Neuroscience Methods, 14 (1985) 69-76.] Male albino Charles River NMRI mice (20-25 g) were used. Prior to the experiment any solid food was withdrawn for 16 hours but the animals had free access to 20% glucose solution. The animals were allowed a 1 hour acclimatisation period spent in a glass cylinder (cc. 15 cm in diameter), then moved to an identical cylinder with a mirror placed behind to facilitate observation. The test substances were suspended in 5% tween-80 (10 ml per kg body weight). and administered orally by gavage 15 min before the formalin injection (20 μl of 1% formalin in 0.9% saline injected subcutaneously into the dorsal surface of the right hindpaw). The time spent by licking and biting of the injected paw was measured from 20 to 25 min. after the formalin injection.

pIC50: −log10 of the molar value.

T1 sequence (Q00960 27-1482, other chains not shown): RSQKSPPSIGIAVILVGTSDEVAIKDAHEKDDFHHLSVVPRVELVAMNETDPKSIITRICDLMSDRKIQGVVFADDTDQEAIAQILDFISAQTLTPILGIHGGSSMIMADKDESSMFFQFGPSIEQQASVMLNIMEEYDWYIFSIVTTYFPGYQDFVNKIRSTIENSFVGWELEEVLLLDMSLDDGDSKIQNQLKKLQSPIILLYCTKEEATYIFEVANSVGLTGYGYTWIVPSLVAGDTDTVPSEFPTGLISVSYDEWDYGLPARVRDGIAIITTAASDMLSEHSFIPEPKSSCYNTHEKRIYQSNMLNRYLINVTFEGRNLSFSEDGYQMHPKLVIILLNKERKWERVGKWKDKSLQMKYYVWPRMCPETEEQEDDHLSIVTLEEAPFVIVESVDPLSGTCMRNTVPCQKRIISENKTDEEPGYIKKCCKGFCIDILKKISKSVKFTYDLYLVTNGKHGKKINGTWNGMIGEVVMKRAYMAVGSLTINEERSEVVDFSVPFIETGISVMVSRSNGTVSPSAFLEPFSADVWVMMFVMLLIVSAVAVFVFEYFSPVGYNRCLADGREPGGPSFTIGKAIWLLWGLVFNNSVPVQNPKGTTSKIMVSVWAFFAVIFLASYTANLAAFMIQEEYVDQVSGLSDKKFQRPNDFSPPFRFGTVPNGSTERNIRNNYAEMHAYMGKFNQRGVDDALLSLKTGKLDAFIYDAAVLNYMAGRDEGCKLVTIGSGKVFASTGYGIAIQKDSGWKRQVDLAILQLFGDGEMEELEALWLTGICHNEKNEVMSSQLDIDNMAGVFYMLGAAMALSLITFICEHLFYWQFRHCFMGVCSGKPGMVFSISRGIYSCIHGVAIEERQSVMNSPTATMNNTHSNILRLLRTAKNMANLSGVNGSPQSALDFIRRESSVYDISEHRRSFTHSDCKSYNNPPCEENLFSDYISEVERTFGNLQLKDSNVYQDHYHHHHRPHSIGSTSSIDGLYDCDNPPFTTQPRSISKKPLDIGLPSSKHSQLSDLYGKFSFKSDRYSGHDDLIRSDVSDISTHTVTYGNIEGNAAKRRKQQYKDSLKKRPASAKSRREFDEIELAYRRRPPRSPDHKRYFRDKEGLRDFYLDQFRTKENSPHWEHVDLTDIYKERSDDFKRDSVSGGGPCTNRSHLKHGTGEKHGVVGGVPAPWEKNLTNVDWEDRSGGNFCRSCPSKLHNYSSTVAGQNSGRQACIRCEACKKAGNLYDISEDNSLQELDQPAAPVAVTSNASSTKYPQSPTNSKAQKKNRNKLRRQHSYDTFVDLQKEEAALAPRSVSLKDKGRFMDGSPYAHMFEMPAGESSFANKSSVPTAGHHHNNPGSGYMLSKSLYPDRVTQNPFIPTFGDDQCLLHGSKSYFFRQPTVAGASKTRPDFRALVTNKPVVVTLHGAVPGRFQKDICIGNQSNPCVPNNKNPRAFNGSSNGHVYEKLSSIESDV
T2 sequence (Q00960 27-1482, other chains not shown): as above

For orientation: pIC50 means −log10 of the IC50, conventionally taken in molar units. The term ED50 denotes the dose at which the effect has come halfway, by size or by number of responders. With `O=C(Nc1ccc2[nH]c(=O)oc2c1)C(=O)N1CCC(Cc2ccc(F)cc2)CC1` [Example 3, 2-[4-(4-Fluoro-benzyl)-piperidin-1-yl]-2-oxo-N-(2-oxo-2,3-dihydro-benzoxazol-6-yl)-acetamide], the figures for the pIC50 (in experiment [1]; on NR2B subunit) were 8.49 and 7.74, respectively. The compound further had an ED50 with NMRI mice of 6.9 mg/kg.
